Source: paper PMC8129133, “Polymer-free corticosteroid dimer implants for controlled and sustained drug delivery” (Nature Communications, 2021)
Several values for one entry are separate records, joined by “and”; a condition that tells them apart may be missing. Identical values can stand only once.

Assays:
[1] = Composition of pellets as made and after release; type: physicochemical; conditions: Supp Fig 5
Experimental: Release studies were carried out using different media, including PBS (pH 7.4, Gibco), 100% FBS (Sigma, F1051), 1% FBS in PBS pH 7.4, and 3.6% BSA (Sigma, A7906) in PBS (pH 7.4, Gibco). Sink conditions were maintained across all of the in vitro release studies through frequent buffer changes, ensuring that the released drug concentration was always at least five times lower than the solubility limit of the drug in the release buffer being used in order to avoid changes in release kinetics caused by drug levels approaching their saturation limit. Samples were incubated in release medium at 37 °C under constant agitation on an orbital shaker at 115 rpm (VWR). At designated timepoints, sampling was performed by complete removal of medium and replenishment with fresh buffer. Sampling timepoints included 24 h and then every 3–4 days thereafter. For PBS release conditions, samples were analyzed directly. For samples with protein (100% FBS, 1% FBS, 3.6% BSA), protein was precipitated by addition of acetonitrile. Samples were vortexed and centrifuged to separate extracted drug from precipitated protein. The supernatant was then analyzed for drug concentration by HPLC.
Supplementary Figure 5 Proportion of dexamethasone in different forms, namely Dex-TEG-Dex, Dex-TEG, and free Dex (Dex – dexamethasone, TEG – triethylene glycol) in heat-molded pellets as-made and […]
the dimer following submersion in release buffer for 14 days. N=4 samples for as made and N=3 samples for 14 days. Data represent the mean ± standard deviation.
(1 picture or pasted object on this page, not shown here)

[2] = Tolerability study of intravitreal implants (IOP, IR fundus imaging, histopathology); type: in vivo
Experimental: Tolerability study. The tolerability study was conducted at Absorption Systems California (San Diego, CA, USA) under the same animal care and ethics guidelines and approval systems as indicated above in the Pharmacodynamics section. […] Animals were anesthetized with intramuscular ketamine hydrochloride (30–32 mg/kg) and xylazine (5–10 mg/kg), with glycopyrrolate (0.01–0.02 mg/kg, intramuscular) administered concurrently. Eyes were prepped with 1–2 drops of topical proparacaine hydrochloride (0.5%). Prior to implant or sham treatment, eyes received one drop of 10% phenylephrine and 1% tropicamide. 5% betadine solution was used to clean the eye and surrounding area. Group 1 underwent a sham injection procedure, while Group 2 and Group 3 were administered 2× and 3× 30 G × 6 mm Dex-TEG-Dex implants via intravitreal injection, respectively. […] IOP measurements were performed on both eyes at baseline and designated timepoints up to 52 weeks thereafter using a pneumotonometer. Eyes received 1–2 drops of topical proparacaine hydrochloride (0.5%) prior to IOP measurements, and measurements were taken at approximately the same time of day (±2 h). Wide angle infrared (IR) imaging was performed at baseline and at designated timepoints using a Heidelberg Spectralis® imaging platform. Prior to imaging, eyes were dilated with 1 drop each of 10% phenylephrine and 1% tropicamide. […] Animals were euthanized via pentobarbital overdose (150 mg/kg, intravenous).
Histopathology. […] Eyes were then transferred to 70% ethanol. Eyes were embedded in paraffin and sectioned using a microtome. Five sections were generated from each eye and stained with hematoxylin and eosin (H&E). All stained sections were microscopically evaluated by an ACVP veterinary pathologist.

[3] = pellets after release in 100% FBS, t=14d

Structure (SMILES): C[C@@H]1C[C@H]2[C@@H]3CCC4=CC(=O)C=C[C@]4(C)[C@@]3(F)[C@@H](O)C[C@]2(C)[C@@]1(O)C(=O)COC(=O)OCCOCCOCCOC(=O)OCC(=O)[C@@]1(O)[C@H](C)C[C@H]2[C@@H]3CCC4=CC(=O)C=C[C@]4(C)[C@@]3(F)[C@@H](O)C[C@@]21C [Dex-TEG-Dex]
- Proportion of dexamethasone as Dex-TEG-Dex ([1]; heat-molded pellets as-made, t=0): 99.32 and 99.47 and 99.36 and 99.44
- Proportion of dexamethasone as Dex-TEG [1, 3]: 0.046 and 0.04
- Proportion of dexamethasone as Dex-TEG-Dex [1, 3]: 99.38 and 99.32 and 99.44
- IR fundus images ([2]; two and three implant eyes, baseline and 3, 6, 9, 12 months): unremarkable
- tolerability ([2]; two or three 30 G × 6 mm implants intravitreally, 12 months): well tolerated
- histopathology findings ([2]; two or three 30 G × 6 mm implants, H&E): no microscopic or macroscopic findings
